{"source": "patent US9750728B2", "about": "“Method and pharmaceutical composition for inhibiting PI3K/AKT/mTOR signaling pathway” (TARGETED THERAPEUTICS, LLC, priority 2012, dated 2017)", "key": {"Panc-1 tumor": {"system": "Panc-1 tumor", "experiment": "Xenotransplanted Panc-1 pancreatic tumor growth in SCID mice", "assay_type": "in vivo, SCID mice (BALB/C)", "protocol": "4-6 week-old male SCID mice (BALB/C) were purchased from Charles River laboratories (Wilmington, Mass., USA). Pane-1 cells at about 80% confluence were trypsinized with 0.25% trypsin and 0.02% EDTA. The cell suspension was centrifuged after addition of 10% FBS. 10^6 cells were resuspended in 100 μl PBS buffer containing 10% Matrigel, and injected with a 1-cc syringe with a 27-30 sized needle into the right flank of nude mice under anesthesia. After tumor formation (mean volume 50-60 mm^3) the mice were randomly divided into four groups (6 mice per group): control group, rapamycin treatment group, Y29794 treatment group, and Y29794 plus rapamycin treatment group. Rapamycin and Y29794 were dissolved in Cremophor formulation (20% Cremophor EL, 30% propylene glycol, 50% ethanol). Rapamycin (2 mg/kg body weight) was given by intraperitoneal injection one dose per week. Y29794 (20 mg/kg body weight) was administered by gavage five doses a week. Weekly measurements of tumor size (length, width and depth) and calculation of the tumor volume (½ larger diameter×(smaller diameter)) were carried until the control tumors reached 1000 mm^3."}, "A549": {"system": "A549", "experiment": "MTT cell viability assay", "assay_type": "cell-based", "conditions": "A549, different doses, 4 days", "protocol": "(§1) 1.1. ZPP and Y29794 induces cytotoxicity to cancer cells by MTT analysis of cell viability. Cells were placed in 96-well plates (3×10^3 cells/well) in octuplicate. The cells were then treated with vehicle or different doses of ZPP for 4 days. Cells were then loaded with 1.2 mM MTT (4,5-Dimethylthiazol-2-vn-2,5-diphenvltetrazolium bromide, a yellow tetrazole) in phenol red-free medium for 4 hours. The cells were then lysed in 10% SDS/0.01M HCL. MTT absorbance (570 nm spectrum) was measured by a microplate reader. The relative absorbance is normalized to the control (vehicle-treated) to indicate relative cell viability. ZPP was purchased from Biomol (Plymouth Meeting, Pa., USA). MTT was purchased from Sigma-Aldrich. Panc-1 and Capan-1 pancreatic cancer cell line, MCF7 and T47D breast cancer cell lines, A549 and HI 703 lung cancer Cell lines were purchased from American Type Culture Collection (ATCC, USA) preparation of pancreatic cancer cell line PK-9 have been disclosed, e.g., Kobari M et al, (1986) Tohoku J Exp Med. 150: 231-248; Etoh T et al, (2003) Clin Cancer Res 9; 1218; Arafat H. et al, (2011) Surgery 150 (2): 306-315. Cells were grown in Dulbecco's Modified. Eagle's (DMEM) medium (Invitrogen, Carlsbad, Calif.) containing 10% fetal bovine serum (FBS) (Hyclone, purchased from Thermo Fisher Scientific, Inc). […] In similar experiments, the cells were treated with different doses of Y29794 for 4 days and analyzed for MTT absorbance. Y29794 oxalate was purchased from Tocris Biosciences (Bristol, UK)."}, "MCF7": {"system": "MCF7", "experiment": "MTT cell viability assay", "assay_type": "cell-based", "conditions": "MCF7, different doses, 4 days", "protocol": "as §1"}, "AsPC-1": {"system": "AsPC-1", "experiment": "MTT cell viability assay", "assay_type": "cell-based", "conditions": "AsPC-1, different doses, 4 days", "protocol": "as §1"}, "H1703": {"system": "H1703", "experiment": "MTT cell viability assay", "assay_type": "cell-based", "conditions": "H1703, different doses, 4 days", "protocol": "as §1"}, "PK-9": {"system": "PK-9", "experiment": "MTT cell viability assay", "assay_type": "cell-based", "conditions": "PK-9, different doses, 4 days", "protocol": "as §1"}, "Capan-1": {"system": "Capan-1", "experiment": "MTT cell viability assay", "assay_type": "cell-based", "conditions": "Capan-1, different doses, 4 days", "protocol": "as §1"}, "TD47": {"system": "TD47", "experiment": "MTT cell viability assay", "assay_type": "cell-based", "conditions": "TD47, different doses, 4 days", "protocol": "as §1"}, "MDAMB231": {"system": "MDAMB231", "experiment": "MTT cell viability assay", "assay_type": "cell-based", "conditions": "MDAMB231, different doses, 4 days", "protocol": "as §1"}}, "note": "“Also recorded” adds a separate entry of the source.", "data": [{"molecule": "CC(C)c1ccc(C(=O)c2cccs2)c(SCCCCCCCCN(C)C)n1", "note": "[Y29794, [2-[8-(dimethylamino)octylsulfanyl]-6-propan-2-ylpyridin-3-yl]-thiophen-2-ylmethanone]", "values": [{"measurement": "tumor growth (tumor volume), combination", "setting": "Panc-1 tumor; Y29794 20 mg/kg by gavage five doses a week plus rapamycin 2 mg/kg intraperitoneal one dose per week", "value": "synergistic effect; also recorded: inhibited tumor growth (P<0.01) more than Y29794 alone"}, {"measurement": "tumor growth (tumor volume)", "setting": "Panc-1 tumor; Y29794 alone, 20 mg/kg by gavage five doses a week, vs control group, 20 mg/kg", "value": "significantly reduces; also recorded: significantly inhibited"}, {"measurement": "MTT absorbance (relative cell viability)", "setting": "A549", "value": "dose-dependent cytotoxicity"}, {"measurement": "MTT absorbance (relative cell viability)", "setting": "MCF7", "value": "dose-dependent cytotoxicity"}, {"measurement": "MTT absorbance (relative cell viability)", "setting": "AsPC-1", "value": "dose-dependent cytotoxicity"}, {"measurement": "MTT absorbance (relative cell viability)", "setting": "H1703", "value": "dose-dependent cytotoxicity"}, {"measurement": "MTT absorbance (relative cell viability)", "setting": "PK-9", "value": "dose-dependent cytotoxicity"}, {"measurement": "MTT absorbance (relative cell viability)", "setting": "Capan-1", "value": "dose-dependent cytotoxicity"}, {"measurement": "MTT absorbance (relative cell viability)", "setting": "TD47", "value": "dose-dependent cytotoxicity"}, {"measurement": "MTT absorbance (relative cell viability)", "setting": "MDAMB231", "value": "dose-dependent cytotoxicity"}]}]}
